# Values quoted from earlier work in patent publication US9950044B2, “Treatment of pulmonary vascular remodeling with neprilysin” (THE REGENTS OF THE UNIVERSITY OF COLORADO, A BODY CORPORATE, priority 2010, dated 2018).
# Key:
# human IPAH patients = details: cited from earlier work
# [1] = test system: human PA SMCs from IPAH patients; details: cells from IPAH patients; cited from earlier work
# VIP KO mice = details: IP injections every other day; cited from earlier work
# NEP = details: exogenous VIP; cited from earlier work
# [2] = human IPAH patients, inhalation
substance,measurement,setting,value
VIP: 28 amino acid peptide with a molecular weight of 3.33 kD,PaO2,human IPAH patients; [2],significant improvement
same,exercise capacity,human IPAH patients; [2],significant improvement
same,untoward effects reported by subjects,"human IPAH patients; human, in vivo",no untoward effects
same,in vitro proliferation of human PA SMCs,[1],inhibited
same,PA medial thickening,VIP KO mice,reduced
same,RV hypertrophy,VIP KO mice,reduced
same,effect on NEP enzymatic activity,NEP,did not affect
